In patent EP1147134B1, “NOVEL POTASSIUM CHANNELS AND GENES ENCODING THESE POTASSIUM CHANNELS” (NEUROSEARCH A/S, priority 1999, dated 2000):

Key:
KCNQ4 = target: T1, KCNQ4 (Homo sapiens, UniProt P56696); assay: Two-electrode voltage clamp of KCNQ4 currents in Xenopus oocytes; format: cell-based
T1 construct: A complete cDNA was assembled and cloned into the oocyte expression vector PTLN; expressed in transfected cells; host or cells: Xenopus oocytes injected with capped cRNA from the PTLN vector
T1 sequence (P56696 1-695): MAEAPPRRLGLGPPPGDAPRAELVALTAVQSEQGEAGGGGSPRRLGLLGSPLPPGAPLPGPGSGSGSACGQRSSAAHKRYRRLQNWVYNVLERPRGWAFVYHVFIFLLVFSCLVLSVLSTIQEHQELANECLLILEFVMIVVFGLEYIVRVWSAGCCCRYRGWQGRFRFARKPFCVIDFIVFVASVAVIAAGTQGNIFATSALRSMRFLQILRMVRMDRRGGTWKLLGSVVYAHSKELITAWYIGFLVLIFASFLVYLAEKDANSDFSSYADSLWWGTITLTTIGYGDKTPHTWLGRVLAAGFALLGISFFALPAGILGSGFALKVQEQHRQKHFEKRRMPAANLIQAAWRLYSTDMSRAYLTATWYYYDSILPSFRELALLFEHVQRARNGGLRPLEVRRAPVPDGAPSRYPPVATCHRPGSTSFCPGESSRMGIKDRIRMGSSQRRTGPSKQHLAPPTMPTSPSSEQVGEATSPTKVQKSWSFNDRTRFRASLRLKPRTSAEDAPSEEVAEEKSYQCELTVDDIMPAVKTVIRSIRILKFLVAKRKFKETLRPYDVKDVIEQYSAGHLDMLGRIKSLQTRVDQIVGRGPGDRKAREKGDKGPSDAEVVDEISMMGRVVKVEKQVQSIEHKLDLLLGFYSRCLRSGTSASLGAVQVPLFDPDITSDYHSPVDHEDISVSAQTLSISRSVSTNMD
Protocol: (§1) KCNQ4 was expressed in Xenopus oocytes and its activity was investigated by two-electrode voltage clamping.
(§2) After linearization of the KCNQ4-containing PTLN vector with Hpal, capped cRNA was transcribed in vitro using the mMessage mMachine cRNA synthesis kit (Ambion). Usually 5 - 15 ng of cRNA were injected into Xenopus oocytes previously isolated by manual defolliculation and short collagenase treatment. In co-expression experiments cRNAs were injected at a 1:1 ratio. Oocytes were kept at 17°C in modified Barth's solution (90 mM NaCl, 1 mM KCl, 0.41 mM CaCl2, 0.33 mM Ca(NO3)2, 0.82 mM MgSO4, 10 mM HEPES, 100 U penicillin-100 µg streptomycin/ml, pH 7.6).
(§3) Standard two-electrode voltage-clamp measurements were performed at room temperature 2-4 days after injection using a Turbotec 05 amplifier (npi instruments, Tamm, Germany) and pClamp 5.5 software (Axon Instruments). Currents were usually recorded in ND98 solution (see Table 2). Solutions for Na^+ / K^+ replacement experiments were prepared from an appropriate mixture of solution KD100 (100 mM KCl) and ND100 (100 mM NaCl) to yield the stated concentrations of Na^+ and K^+. Linopirdine (RBI, Natick, MA) was prepared as a 100 mM stock solution in DMSO and added to a final concentration of 200 µM to ND98.

KCNQ3/KCNQ4 = target: T2, KCNQ3/KCNQ4 (Homo sapiens, UniProt O43525+P56696); assay: Two-electrode voltage clamp of Xenopus oocytes co-injected with KCNQ3 and KCNQ4 cRNA; format: cell-based; settings: 200 µM Linopirdine in ND98, currents measured at +40 mV, cRNAs 1:1
T2 construct: A complete cDNA was assembled and cloned into the oocyte expression vector PTLN; expressed in transfected cells; host or cells: Xenopus oocytes co-injected with KCNQ3 and KCNQ4 cRNA
T2 sequence (P56696 1-695): T1 sequence (P56696 1-695)
T2 sequence (O43525 1-872): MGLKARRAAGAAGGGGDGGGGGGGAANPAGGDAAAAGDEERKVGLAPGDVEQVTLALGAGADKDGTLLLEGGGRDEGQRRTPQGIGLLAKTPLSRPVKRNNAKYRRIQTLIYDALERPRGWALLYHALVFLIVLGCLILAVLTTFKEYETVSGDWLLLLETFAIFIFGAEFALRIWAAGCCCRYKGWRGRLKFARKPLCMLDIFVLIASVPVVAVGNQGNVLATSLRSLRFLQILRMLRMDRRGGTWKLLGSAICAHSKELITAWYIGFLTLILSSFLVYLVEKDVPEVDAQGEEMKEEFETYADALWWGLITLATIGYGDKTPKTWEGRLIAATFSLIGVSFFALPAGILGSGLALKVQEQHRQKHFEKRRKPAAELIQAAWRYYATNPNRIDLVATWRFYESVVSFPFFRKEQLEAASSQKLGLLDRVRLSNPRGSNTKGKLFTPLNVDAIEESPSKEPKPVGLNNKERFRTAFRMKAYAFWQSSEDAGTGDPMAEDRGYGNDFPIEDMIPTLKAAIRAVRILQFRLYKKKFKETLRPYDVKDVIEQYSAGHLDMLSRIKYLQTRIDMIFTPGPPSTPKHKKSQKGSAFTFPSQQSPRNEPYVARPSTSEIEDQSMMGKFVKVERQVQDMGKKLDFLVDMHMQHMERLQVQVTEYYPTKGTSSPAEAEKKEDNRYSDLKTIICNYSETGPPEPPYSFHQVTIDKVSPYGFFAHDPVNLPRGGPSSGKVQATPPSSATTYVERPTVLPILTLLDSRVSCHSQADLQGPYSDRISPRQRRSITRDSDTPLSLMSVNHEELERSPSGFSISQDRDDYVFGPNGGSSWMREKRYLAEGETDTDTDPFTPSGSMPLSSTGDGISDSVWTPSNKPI
Protocol: as §1, §2, §3

KCNQ2/KCNQ3 channels = settings: concentration of 200 µM; cited from earlier work

O=C1N(c2ccccc2)c2ccccc2C1(Cc1ccncc1)Cc1ccncc1 [Linopirdine, 1,3-dihydro-1-phenyl-3,3-bis(4-pyridylmethyl)-2H-indol-2-one]
inhibition at 200 µM (KCNQ4; 200 µM Linopirdine in ND98, currents measured at +40 mV, Xenopus oocytes): ~30%
time until steady-state inhibition was reached, KCNQ4 currents (KCNQ4; upon addition of 200 µM Linopirdine): ~ 1 min
inhibition with KCNQ3/KCNQ4 co-expression (KCNQ3/KCNQ4): ≈ 75%
inhibition of KCNQ2/KCNQ3 channels (KCNQ2/KCNQ3 channels): nearly completely inhibits
